Data published in patent publication US7524869B2, “Taxanes having a C10 ester substituent” (Florida State University Research Foundation, Inc., priority 2000, dated 2009).
pIC50: −log10 of the molar value.

System: HCT116
Assay: In vitro cytotoxicity measured by the cell colony formation assay
Format: cell-based
Settings: HCT116 cells, 72 h drug incubation, colonies counted after 7 days; ID50 = drug concentration producing 50% inhibition of colony formation; read-out: IN VITRO ID 50 (nm) HCT116
Method: In Vitro Cytotoxicity Measured by the Cell Colony Formation Assay
Four hundred cells (HCT116) were plated in 60 mm Petri dishes containing 2.7 mL of medium (modified McCoy's 5a medium containing 10% fetal bovine serum and 100 units/mL penicillin and 100 µg/mL streptomycin). The cells were incubated in a CO2 incubator at 37° C. for 5 h for attachment to the bottom of Petri dishes. The compounds identified in Example 2 were made up fresh in medium at ten times the final concentration, and then 0.3 mL of this stock solution was added to the 2.7 mL of medium in the dish. The cells were then incubated with drugs for 72 h at 37° C. At the end of incubation the drug-containing media were decanted, the dishes were rinsed with 4 mL of Hank's Balance Salt Solution (HBSS), 5 mL of fresh medium was added, and the dishes were returned to the incubator for colony formation. The cell colonies were counted using a colony counter after incubation for 7 days.

Row | Compound | pIC50
1 | CCC(=O)O[C@H]1C(=O)[C@@]2(C)C([C@H](OC(=O)c3ccccc3)[C@]3(O)C[C@H](OC(=O)[C@H](O)[C@H](C=C(C)C)NC(=O)OC(C)(C)C)C(C)=C1C3(C)C)[C@]1(OC(C)=O)CO[C@@H]1C[C@@H]2O (stereo partly drawn) [Compound 0499] | > 9.00
2 | CCC(=O)O[C@H]1C(=O)[C@@]2(C)C([C@H](OC(=O)c3ccccc3)[C@]3(O)C[C@H](OC(=O)[C@H](O)[C@@H](NC(=O)OC(C)(C)C)c4ccccn4)C(C)=C1C3(C)C)[C@]1(OC(C)=O)CO[C@@H]1C[C@@H]2O (stereo partly drawn) [Compound 0503] | > 9.00
3 | CCC(=O)O[C@H]1C(=O)[C@@]2(C)C([C@H](OC(=O)c3ccccc3)[C@]3(O)C[C@H](OC(=O)[C@H](O)[C@@H](NC(=O)OC(C)(C)C)c4cccnc4)C(C)=C1C3(C)C)[C@]1(OC(C)=O)CO[C@@H]1C[C@@H]2O (stereo partly drawn) [Compound 0517] | > 8.00
4 | CCC(=O)O[C@H]1C(=O)[C@@]2(C)C([C@H](OC(=O)c3ccccc3)[C@]3(O)C[C@H](OC(=O)[C@H](O)[C@@H](NC(=O)OC(C)(C)C)c4ccncc4)C(C)=C1C3(C)C)[C@]1(OC(C)=O)CO[C@@H]1C[C@@H]2O (stereo partly drawn) [Compound 0521] | > 9.00
5 | CCC(=O)O[C@H]1C(=O)[C@@]2(C)C([C@H](OC(=O)c3ccccc3)[C@]3(O)C[C@H](OC(=O)[C@H](O)[C@@H](NC(=O)OC(C)(C)C)c4ccco4)C(C)=C1C3(C)C)[C@]1(OC(C)=O)CO[C@@H]1C[C@@H]2O (stereo partly drawn) [Compound 0536] | > 9.00
6 | CCC(=O)O[C@H]1C(=O)[C@@]2(C)C([C@H](OC(=O)c3ccccc3)[C@]3(O)C[C@H](OC(=O)[C@H](O)[C@@H](NC(=O)OC(C)(C)C)c4ccoc4)C(C)=C1C3(C)C)[C@]1(OC(C)=O)CO[C@@H]1C[C@@H]2O (stereo partly drawn) [Compound 0549] | > 8.00
7 | CCC(=O)O[C@H]1C(=O)[C@@]2(C)C([C@H](OC(=O)c3ccccc3)[C@]3(O)C[C@H](OC(=O)[C@H](O)[C@@H](NC(=O)OC(C)(C)C)c4cccs4)C(C)=C1C3(C)C)[C@]1(OC(C)=O)CO[C@@H]1C[C@@H]2O (stereo partly drawn) [Compound 0550] | > 8.00
8 | CCC(=O)O[C@H]1C(=O)[C@@]2(C)C([C@H](OC(=O)c3ccccc3)[C@]3(O)C[C@H](OC(=O)[C@H](O)[C@@H](NC(=O)OC(C)(C)C)c4ccsc4)C(C)=C1C3(C)C)[C@]1(OC(C)=O)CO[C@@H]1C[C@@H]2O (stereo partly drawn) [Compound 0562] | > 9.00
9 | CCC(=O)O[C@H]1C(=O)[C@@]2(C)C([C@H](OC(=O)c3ccccc3)[C@]3(O)C[C@H](OC(=O)[C@H](O)[C@@H](NC(=O)OC(C)(C)C)C4CC4)C(C)=C1C3(C)C)[C@]1(OC(C)=O)CO[C@@H]1C[C@@H]2O (stereo partly drawn) [Compound 0578] | > 9.00
10 | CCC(=O)O[C@H]1C(=O)[C@@]2(C)C([C@H](OC(=O)c3ccccc3)[C@]3(O)C[C@H](OC(=O)[C@H](O)[C@@H](NC(=O)OC(C)(C)C)C(C)C)C(C)=C1C3(C)C)[C@]1(OC(C)=O)CO[C@@H]1C[C@@H]2O (stereo partly drawn) [Compound 0583] | > 8.00
11 | CCC(=O)O[C@H]1C(=O)[C@@]2(C)C([C@H](OC(=O)c3ccccc3)[C@]3(O)C[C@H](OC(=O)[C@H](O)[C@@H](NC(=O)OC(C)(C)C)C4CCC4)C(C)=C1C3(C)C)[C@]1(OC(C)=O)CO[C@@H]1C[C@@H]2O (stereo partly drawn) [Compound 0596] | > 8.00
12 | CCC(=O)O[C@H]1C(=O)[C@@]2(C)C([C@H](OC(=O)c3ccccc3)[C@]3(O)C[C@H](OC(=O)[C@H](O)[C@@H](NC(=O)OC(C)(C)C)c4ccc([N+](=O)[O-])cc4)C(C)=C1C3(C)C)[C@]1(OC(C)=O)CO[C@@H]1C[C@@H]2O (stereo partly drawn) [Compound 0602] | > 9.00
13 | CCC(=O)O[C@H]1C(=O)[C@@]2(C)C([C@H](OC(=O)c3ccccc3)[C@]3(O)C[C@H](OC(=O)[C@H](O)[C@@H](NC(=O)OC(C)(C)C)c4ccccc4)C(C)=C1C3(C)C)[C@]1(OC(C)=O)CO[C@@H]1C[C@@H]2O (stereo partly drawn) [Compound 0611] | > 8.00
14 | CCC(=O)O[C@H]1C(=O)[C@@]2(C)C([C@H](OC(=O)c3ccccc3)[C@]3(O)C[C@H](OC(=O)[C@H](O)[C@H](C=C(C)C)NC(=O)c4ccccc4)C(C)=C1C3(C)C)[C@]1(OC(C)=O)CO[C@@H]1C[C@@H]2O (stereo partly drawn) [Compound 0625] | > 9.00
15 | CCC(=O)O[C@H]1C(=O)[C@@]2(C)C([C@H](OC(=O)c3ccccc3)[C@]3(O)C[C@H](OC(=O)[C@H](O)[C@@H](NC(=O)c4ccccc4)c4ccccn4)C(C)=C1C3(C)C)[C@]1(OC(C)=O)CO[C@@H]1C[C@@H]2O (stereo partly drawn) [Compound 0634] | > 8.00
16 | CCC(=O)O[C@H]1C(=O)[C@@]2(C)C([C@H](OC(=O)c3ccccc3)[C@]3(O)C[C@H](OC(=O)[C@H](O)[C@@H](NC(=O)c4ccccc4)c4ccncc4)C(C)=C1C3(C)C)[C@]1(OC(C)=O)CO[C@@H]1C[C@@H]2O (stereo partly drawn) [Compound 0659] | > 9.00
17 | CCC(=O)O[C@H]1C(=O)[C@@]2(C)C([C@H](OC(=O)c3ccccc3)[C@]3(O)C[C@H](OC(=O)[C@H](O)[C@@H](NC(=O)c4ccccc4)c4ccco4)C(C)=C1C3(C)C)[C@]1(OC(C)=O)CO[C@@H]1C[C@@H]2O (stereo partly drawn) [Compound 0663] | > 9.00

Row | Compound | pIC50
18 | CCC(=O)O[C@H]1C(=O)[C@@]2(C)C([C@H](OC(=O)c3ccccc3)[C@]3(O)C[C@H](OC(=O)[C@H](O)[C@@H](NC(=O)c4ccccc4)c4ccoc4)C(C)=C1C3(C)C)[C@]1(OC(C)=O)CO[C@@H]1C[C@@H]2O (stereo partly drawn) [Compound 0670] | > 9.00
19 | CCC(=O)O[C@H]1C(=O)[C@@]2(C)C([C@H](OC(=O)c3ccccc3)[C@]3(O)C[C@H](OC(=O)[C@H](O)[C@@H](NC(=O)c4ccccc4)c4ccsc4)C(C)=C1C3(C)C)[C@]1(OC(C)=O)CO[C@@H]1C[C@@H]2O (stereo partly drawn) [Compound 0691] | > 9.00
20 | CCC(=O)O[C@H]1C(=O)[C@@]2(C)C([C@H](OC(=O)c3ccccc3)[C@]3(O)C[C@H](OC(=O)[C@H](O)[C@@H](NC(=O)c4ccccc4)C4CC4)C(C)=C1C3(C)C)[C@]1(OC(C)=O)CO[C@@H]1C[C@@H]2O (stereo partly drawn) [Compound 0706] | > 9.00
21 | CCC(=O)O[C@H]1C(=O)[C@@]2(C)C([C@H](OC(=O)c3ccccc3)[C@]3(O)C[C@H](OC(=O)[C@H](O)[C@@H](NC(=O)c4ccccc4)C(C)C)C(C)=C1C3(C)C)[C@]1(OC(C)=O)CO[C@@H]1C[C@@H]2O (stereo partly drawn) [Compound 0719] | > 8.00
22 | CCC(=O)O[C@H]1C(=O)[C@@]2(C)C([C@H](OC(=O)c3ccccc3)[C@]3(O)C[C@H](OC(=O)[C@H](O)[C@@H](NC(=O)c4ccccc4)C4CCC4)C(C)=C1C3(C)C)[C@]1(OC(C)=O)CO[C@@H]1C[C@@H]2O (stereo partly drawn) [Compound 0720] | > 8.00
23 | CCC(=O)O[C@H]1C(=O)[C@@]2(C)C([C@H](OC(=O)c3ccccc3)[C@]3(O)C[C@H](OC(=O)[C@H](O)[C@@H](NC(=O)c4ccccc4)c4ccc([N+](=O)[O-])cc4)C(C)=C1C3(C)C)[C@]1(OC(C)=O)CO[C@@H]1C[C@@H]2O (stereo partly drawn) [Compound 0732] | > 8.00
24 | CCC(=O)O[C@H]1C(=O)[C@@]2(C)C([C@H](OC(=O)c3ccccc3)[C@]3(O)C[C@H](OC(=O)[C@H](O)[C@@H](NC(=O)c4ccccc4)c4ccccc4)C(C)=C1C3(C)C)[C@]1(OC(C)=O)CO[C@@H]1C[C@@H]2O (stereo partly drawn) [Compound 0748] | > 8.00
25 | CC(=O)O[C@@]12CO[C@@H]1C[C@H](O)[C@@]1(C)C(=O)[C@H](OC(=O)C3CC3)C3=C(C)[C@@H](OC(=O)[C@H](O)[C@H](C=C(C)C)NC(=O)OC(C)(C)C)C[C@@](O)([C@@H](OC(=O)c4ccccc4)C12)C3(C)C (stereo partly drawn) [Compound 0838] | > 9.00
26 | CC(=O)O[C@@]12CO[C@@H]1C[C@H](O)[C@@]1(C)C(=O)[C@H](OC(=O)C3CC3)C3=C(C)[C@@H](OC(=O)[C@H](O)[C@@H](NC(=O)OC(C)(C)C)c4ccco4)C[C@@](O)([C@@H](OC(=O)c4ccccc4)C12)C3(C)C (stereo partly drawn) [Compound 0843] | > 9.00
27 | CC(=O)O[C@@]12CO[C@@H]1C[C@H](O)[C@@]1(C)C(=O)[C@H](OC(=O)C3CC3)C3=C(C)[C@@H](OC(=O)[C@H](O)[C@@H](NC(=O)OC(C)(C)C)c4cccs4)C[C@@](O)([C@@H](OC(=O)c4ccccc4)C12)C3(C)C (stereo partly drawn) [Compound 0854] | > 9.00
28 | CC(=O)O[C@@]12CO[C@@H]1C[C@H](O)[C@@]1(C)C(=O)[C@H](OC(=O)C3CC3)C3=C(C)[C@@H](OC(=O)[C@H](O)[C@@H](NC(=O)OC(C)(C)C)C4CC4)C[C@@](O)([C@@H](OC(=O)c4ccccc4)C12)C3(C)C (stereo partly drawn) [Compound 0860] | > 9.00
29 | CC(=O)O[C@@]12CO[C@@H]1C[C@H](O)[C@@]1(C)C(=O)[C@H](OC(=O)C3CC3)C3=C(C)[C@@H](OC(=O)[C@H](O)[C@@H](NC(=O)OC(C)(C)C)c4ccc([N+](=O)[O-])cc4)C[C@@](O)([C@@H](OC(=O)c4ccccc4)C12)C3(C)C (stereo partly drawn) [Compound 0879] | > 9.00
30 | CC(=O)O[C@@]12CO[C@@H]1C[C@H](O)[C@@]1(C)C(=O)[C@H](OC(=O)C3CC3)C3=C(C)[C@@H](OC(=O)[C@H](O)[C@@H](NC(=O)OC(C)(C)C)c4ccccc4)C[C@@](O)([C@@H](OC(=O)c4ccccc4)C12)C3(C)C (stereo partly drawn) [Compound 0882] | > 9.00
31 | CC(=O)O[C@@]12CO[C@@H]1C[C@H](O)[C@@]1(C)C(=O)[C@H](OC(=O)C3CC3)C3=C(C)[C@@H](OC(=O)[C@H](O)[C@H](C=C(C)C)NC(=O)c4ccccc4)C[C@@](O)([C@@H](OC(=O)c4ccccc4)C12)C3(C)C (stereo partly drawn) [Compound 0890] | > 9.00
32 | CC(=O)O[C@@]12CO[C@@H]1C[C@H](O)[C@@]1(C)C(=O)[C@H](OC(=O)C3CC3)C3=C(C)[C@@H](OC(=O)[C@H](O)[C@@H](NC(=O)c4ccccc4)c4ccco4)C[C@@](O)([C@@H](OC(=O)c4ccccc4)C12)C3(C)C (stereo partly drawn) [Compound 0908] | > 9.00
33 | CC(=O)O[C@@]12CO[C@@H]1C[C@H](O)[C@@]1(C)C(=O)[C@H](OC(=O)C3CC3)C3=C(C)[C@@H](OC(=O)[C@H](O)[C@@H](NC(=O)c4ccccc4)c4cccs4)C[C@@](O)([C@@H](OC(=O)c4ccccc4)C12)C3(C)C (stereo partly drawn) [Compound 0919] | > 9.00
